From patent US8883784B2, “Apoptosis-inducing agents for the treatment of cancer and immune and autoimmune diseases” (AbbVie Inc., priority 2012, dated 2014)

Assays:
GST-Bcl-xL = GST-Bcl-xL (Homo sapiens (Human), UniProt Q07817); test: TR-FRET binding assay, competition with F-Bak for Bcl-xL; conditions: competition with F-Bak probe, GST-Bcl-xL 1 nM
Method: Determination of the utility of compounds having Formula (I) as binders to and inhibitors of anti-apoptotic Bcl-xL proteins was performed using the Time Resolved-Fluorescence Resonance Energy Transfer (TR-FRET) Assay. Tb-anti-GST antibody was purchased from Invitrogen (Catalog No. PV4216).
The measurement of competition of compounds of Formula (I) with F-Bak for a Bcl-2 family protein (Bcl-xL) binding site using a Time Resolved Fluorescence Resonance Energy Transfer (TR-FRET) binding assay:
Test compounds were serially diluted in DMSO starting at 50 μM (2× starting concentration; 10% DMSO) and 10 μL transferred into a 384-well plate.
The samples are then mixed on a shaker for 1 minute then incubated for an additional 2 hours at room temperature. For each assay plate, a probe/antibody and protein/antibody/probe mixture were included as a negative and a positive control, respectively. Fluorescence was measured on the ENVISION plate reader (Perkin Elmer) using a 340/35 nm excitation filter and 520/525 (F-Bak) and 495/510 nm (Tb-labeled anti-his antibody) emission filters. Dissociation constants (Ki) were determined using Wang's equation (Wang, Z. X. An 20 exact mathematical expression for describing competitive binding of two different ligands to protein molecule. FEBS Lett. 1995 360:111-114). The TR-FRET assay can be performed in the presence of varying concentrations of human serum (HS) or fetal bovine serum (FBS).

[1] = system: mouse FL5.12 cells transfected with Bcl-XL; test: FL5.12 cellular assay (cell viability, CellTiter-Glo); type: cell-based; conditions: IL-3-depleted, 3% FBS assay media, 24 hours, read-out: FL5.12 Bcl-xL, -IL3, EC 50
Method: The efficacy of the compounds of Formula (I) can also be determined in cell-based killing assays using a variety of cell lines and mouse tumor models. For example, their activity on cell viability can be assessed on a panel of cultured tumorigenic and non-tumorigenic cell lines, as well as primary mouse or human cell populations. In one exemplary set of conditions, mouse FL5.12 cells transfected with Bcl-XL were cultured under standard conditions in RPMI with 2 mM glutamine, 1% 100 mM sodium pyruvate, 2% 1 M HEPES, 4 μL/L of β-mercaptoethanol, 1% penicillinstreptomycin, 10% FBS, and 10% WEHI-3B conditioned media (for IL-3). For assaying the compound activity, the cells were exchanged into an IL-3-depleted deprivation media, which was identical to the growth media except for the absence of FBS and WEHI-3B conditional media, for 2 days. Then the cells were exchanged to 3% FBS assay media (RPMI with 2 mM glutamine, 1% 100 mM sodium pyruvate, 2% 1 M HEPES, 4 μL/L of β-mercaptoethanol, 1% penicillinstreptomycin, 3% FBS). Compounds in series dilutions were added, and the cells were cultured for 24 hours. Cell viability was assayed using the CellTiter-Glo assay (Promega Corp., Madison, Wis.) according to the manufacturer instructions. Individual determinations were the result of duplicate values.

Sequence of GST-Bcl-xL (Q07817 whole entry): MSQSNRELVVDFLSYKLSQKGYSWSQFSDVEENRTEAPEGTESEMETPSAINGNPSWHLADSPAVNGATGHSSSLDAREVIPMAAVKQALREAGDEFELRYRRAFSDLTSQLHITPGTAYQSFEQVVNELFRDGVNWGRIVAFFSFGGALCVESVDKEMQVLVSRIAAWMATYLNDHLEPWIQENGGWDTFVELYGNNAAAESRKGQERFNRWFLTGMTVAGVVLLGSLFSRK

SMILES	Ki (GST-Bcl-xL)	EC50 [1]
O=C(NS(=O)(=O)c1ccc(N[C@H](CCN2CCOCC2)CSc2ccccc2)c([N+](=O)[O-])c1)c1csc(N2CCc3cccc(C(=O)Nc4nc5ccccc5s4)c3C2)n1 [Example 10, N-(1,3-benzothiazol-2-yl)-2-(4-{[(4-{[(2R)-4-(morpholin-4-yl)-1-(phenylsulfanyl)butan-2-yl]amino}-3-nitrophenyl)sulfonyl]carbamoyl}-1,3-thiazol-2-yl)-1,2,3,4-tetrahydroisoquinoline-8-carboxamide]	0.14 nM	
O=C(NS(=O)(=O)c1ccc(N[C@H](CCN2CCOCC2)CSc2ccccc2)c(S(=O)(=O)C(F)(F)F)c1)c1csc(N2CCc3cccc(C(=O)Nc4nc5ccccc5s4)c3C2)n1 [Example 2, N-(1,3-benzothiazol-2-yl)-2-(4-{[(4-{[(2R)-4-(morpholin-4-yl)-1-(phenylsulfanyl)butan-2-yl]amino}-3-[(trifluoromethyl)sulfonyl]phenyl)sulfonyl]carbamoyl}-1,3-thiazol-2-yl)-1,2,3,4-tetrahydroisoquinoline-8-carboxamide]	0.1 nM	12 nM
O=C(NS(=O)(=O)c1ccc(N[C@H](CCN2CCOCC2)CSc2ccccc2)c(S(=O)(=O)C(F)(F)F)c1)c1cccc(N2CCc3cccc(C(=O)Nc4nc5ccccc5s4)c3C2)n1 [Example 3, N-(1,3-benzothiazol-2-yl)-2-(6-{[(4-{[(2R)-4-(morpholin-4-yl)-1-(phenylsulfanyl)butan-2-yl]amino}-3-[(trifluoromethyl)sulfonyl]phenyl)sulfonyl]carbamoyl}pyridin-2-yl)-1,2,3,4-tetrahydroisoquinoline-8-carboxamide]	12 nM	> 1000 nM
CN(C)CC[C@H](CSc1ccccc1)Nc1ccc(S(=O)(=O)NC(=O)c2csc(N3CCc4cccc(C(=O)Nc5nc6ccccc6s5)c4C3)n2)cc1S(=O)(=O)C(F)(F)F [Example 12, N-(1,3-benzothiazol-2-yl)-2-(4-{[(4-{[(2R)-4-(dimethylamino)-1-(phenylsulfanyl)butan-2-yl]amino}-3-[(trifluoromethyl)sulfonyl]phenyl)sulfonyl]carbamoyl}-1,3-thiazol-2-yl)-1,2,3,4-tetrahydroisoquinoline-8-carboxamide]	0.04 nM	3 nM
CN(C)CCCNc1ccc(S(=O)(=O)NC(=O)c2nc(N3CCc4cccc(C(=O)Nc5nc6ccccc6s5)c4C3)sc2CCc2ccccc2)cc1[N+](=O)[O-] [Example 13, N-(1,3-benzothiazol-2-yl)-2-[4-{[(4-{[3-(dimethylamino)propyl]amino}-3-nitrophenyl)sulfonyl]carbamoyl}-5-(2-phenylethyl)-1,3-thiazol-2-yl]-1,2,3,4-tetrahydroisoquinoline-8-carboxamide]	0.8 nM	94 nM
CN(C)CCCNc1ccc(S(=O)(=O)NC(=O)c2nc(N3CCc4cccc(C(=O)Nc5nc6ccccc6s5)c4C3)sc2Cc2ccccc2)cc1S(=O)(=O)C(F)(F)F [Example 8, N-(1,3-benzothiazol-2-yl)-2-(5-benzyl-4-{[(4-{[3-(dimethylamino)propyl]amino}-3-[(trifluoromethyl)sulfonyl]phenyl)sulfonyl]carbamoyl}-1,3-thiazol-2-yl)-1,2,3,4-tetrahydroisoquinoline-8-carboxamide]	11 nM	> 1000 nM
O=C(NS(=O)(=O)c1ccc(N[C@H](CCO)CSc2ccccc2)c(S(=O)(=O)C(F)(F)F)c1)c1csc(N2CCc3cccc(C(=O)Nc4nc5ccccc5s4)c3C2)n1 [Example 14, N-(1,3-benzothiazol-2-yl)-2-(4-{[(4-{[(2R)-4-hydroxy-1-(phenylsulfanyl)butan-2-yl]amino}-3-[(trifluoromethyl)sulfonyl]phenyl)sulfonyl]carbamoyl}-1,3-thiazol-2-yl)-1,2,3,4-tetrahydroisoquinoline-8-carboxamide]	0.2 nM	
CN(C)CCCNc1ccc(S(=O)(=O)NC(=O)c2nc(N3CCc4cccc(C(=O)Nc5nc6ccccc6s5)c4C3)sc2Cc2ccccc2)cc1[N+](=O)[O-] [Example 9, N-(1,3-benzothiazol-2-yl)-2-(5-benzyl-4-{[(4-{[3-(dimethylamino)propyl]amino}-3-nitrophenyl)sulfonyl]carbamoyl}-1,3-thiazol-2-yl)-1,2,3,4-tetrahydroisoquinoline-8-carboxamide]	41 nM	> 1000 nM
CN(C)CCCNc1ccc(S(=O)(=O)NC(=O)c2nc(N3CCc4cccc(C(=O)Nc5nc6ccccc6s5)c4C3)sc2CCCc2ccccc2)cc1[N+](=O)[O-] [Example 15, N-(1,3-benzothiazol-2-yl)-2-[4-{[(4-{[3-(dimethylamino)propyl]amino}-3-nitrophenyl)sulfonyl]carbamoyl}-5-(3-phenylpropyl)-1,3-thiazol-2-yl]-1,2,3,4-tetrahydroisoquinoline-8-carboxamide]	5 nM	
CN(C)CCCNc1ccc(S(=O)(=O)NC(=O)c2nc(N3CCc4cccc(C(=O)Nc5nc6ccccc6s5)c4C3)ccc2CCCc2ccccc2)cc1S(=O)(=O)C(F)(F)F [Example 5, N-(1,3-benzothiazol-2-yl)-2-[6-{[(4-{[3-(dimethylamino)propyl]amino}-3-[(trifluoromethyl)sulfonyl]phenyl)sulfonyl]carbamoyl}-5-(3-phenylpropyl)pyridin-2-yl]-1,2,3,4-tetrahydroisoquinoline-8-carboxamide]	48 nM	> 1000 nM
CN(C)CCCNc1ccc(S(=O)(=O)NC(=O)c2nc(N3CCc4cccc(C(=O)Nc5nc6ccccc6s5)c4C3)ccc2CCCc2ccccc2)cc1[N+](=O)[O-] [Example 4, N-(1,3-benzothiazol-2-yl)-2-[6-{[(4-{[3-(dimethylamino)propyl]amino}-3-nitrophenyl)sulfonyl]carbamoyl}-5-(3-phenylpropyl)pyridin-2-yl]-1,2,3,4-tetrahydroisoquinoline-8-carboxamide]	9 nM	> 1000 nM
CN(C)CCCNc1ccc(S(=O)(=O)NC(=O)c2nc(N3CCc4cccc(C(=O)Nc5nc6ccccc6s5)c4C3)sc2CCc2ccccc2)cc1S(=O)(=O)C(F)(F)F [Example 11, N-(1,3-benzothiazol-2-yl)-2-[4-{[(4-{[3-(dimethylamino)propyl]amino}-3-[(trifluoromethyl)sulfonyl]phenyl)sulfonyl]carbamoyl}-5-(2-phenylethyl)-1,3-thiazol-2-yl]-1,2,3,4-tetrahydroisoquinoline-8-carboxamide]	0.06 nM	22 nM
CN(C)CC[C@H](CSc1ccccc1)Nc1ccc(S(=O)(=O)NC(=O)c2csc(N3CCc4cccc(C(=O)Nc5nc6ccccc6s5)c4C3)n2)cc1[N+](=O)[O-] [Example 1, N-(1,3-benzothiazol-2-yl)-2-(4-{[(4-{[(2R)-4-(dimethylamino)-1-(phenylsulfanyl)butan-2-yl]amino}-3-nitrophenyl)sulfonyl]carbamoyl}-1,3-thiazol-2-yl)-1,2,3,4-tetrahydroisoquinoline-8-carboxamide]	0.1 nM	56 nM
CN(C)CCCNc1ccc(S(=O)(=O)NC(=O)c2nc(N3CCc4cccc(C(=O)Nc5nc6ccccc6s5)c4C3)ccc2CCc2ccccc2)cc1[N+](=O)[O-] [Example 6, N-(1,3-benzothiazol-2-yl)-2-[6-{[(4-{[3-(dimethylamino)propyl]amino}-3-nitrophenyl)sulfonyl]carbamoyl}-5-(2-phenylethyl)pyridin-2-yl]-1,2,3,4-tetrahydroisoquinoline-8-carboxamide]	17 nM	> 1000 nM
CN(C)CCCNc1ccc(S(=O)(=O)NC(=O)c2csc(N3CCc4cccc(C(=O)Nc5nc6ccccc6s5)c4C3)n2)cc1S(=O)(=O)C(F)(F)F [Example 7, N-(1,3-benzothiazol-2-yl)-2-(4-{[(4-{[3-(dimethylamino)propyl]amino}-3-[(trifluoromethyl)sulfonyl]phenyl)sulfonyl]carbamoyl}-1,3-thiazol-2-yl)-1,2,3,4-tetrahydroisoquinoline-8-carboxamide]	1.7 nM	> 1000 nM
